The assay relates to PC-3 cells. Kind of assay: PC-3 Oxygen Rate Consumption (OCR) Assay. To be noted: Homo sapiens, 0.05 h, medium with 2% FBS, OCR at 3-min post-injection normalized to % increase over DMSO-treated cells, concentration for half-maximal OCR increase, read-out: EC50-PC3-OCR-FBS-3min. Format: cell-based. The gist of the method:
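PC-3 cells seeded a day before, equilibrated 1 h in XF medium with 10 mM glucose, 1 mM pyruvate, 2% FBS, non-CO2 at 37 °C. Compound injected after basal OCR reads; OCR at 3 min post-injection normalized as % increase over DMSO, EC50 = half-maximal increase; six replicates.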
As usually defined, the EC50 is the concentration that produces a half-maximal response. For `N#CC1CN(S(=O)(=O)Nc2ccc(C(F)(F)F)cc2C(=O)NC23CC(C(F)(F)F)(C2)C3)C1` [Example 234, 2-((3-cyanoazetidine)-1-sulfonamido)-5-(trifluoromethyl)-N-(3-(trifluoromethyl)bicyclo[1.1.1]pentan-1-yl)benzamide], the EC50 amounted to 3.86 µM.

In the case of `CS(=O)(=O)Nc1ccc(SC(F)(F)F)cc1C(=O)NC12CCC(C#N)(CC1)CC2` [Example 235, N-(4-cyanobicyclo[2.2.2]octan-1-yl)-2-(methylsulfonamido)-5-((trifluoromethyl)thio)benzamide], the EC50 turned out to be 4.53 µM.

For the compound `CN(C)S(=O)(=O)Nc1cc(F)c(F)cc1C(=O)NC12CCC(C#N)(CC1)CC2` [Example 236, N-(4-cyanobicyclo[2.2.2]octan-1-yl)-2-((N,N-dimethylsulfamoyl)amino)-4,5-difluorobenzamide], the EC50 amounted to 25.2 µM.

For the compound `O=C(NC12CCC(C(F)(F)F)(CC1)CC2)c1cc(SC(F)(F)F)ccc1NS(=O)(=O)N1CCS(=O)(=O)CC1` [Example 237, 2-((1,1-dioxidothiomorpholine)-4-sulfonamido)-N-(4-(trifluoromethyl)bicyclo[2.2.2]octan-1-yl)-5-((trifluoromethyl)thio)benzamide], the EC50 is 7.73 µM.

Turning to `O=C(NC12CCC(C(F)(F)F)(CC1)CC2)c1ccc(F)cc1NS(=O)(=O)C1CCS(=O)(=O)CC1` [Example 238, 2-((1,1-dioxidotetrahydro-2H-thiopyran)-4-sulfonamido)-4-fluoro-N-(4-(trifluoromethyl)bicyclo[2.2.2]octan-1-yl)benzamide], the EC50 is 29.7 µM.

On to `O=C(NC12CCC(C(F)(F)F)(CC1)CC2)c1cc(C(F)(F)F)ccc1NS(=O)(=O)C1CCS(=O)(=O)CC1` [Example 239, 2-((1,1-dioxidotetrahydro-2H-thiopyran)-4-sulfonamido)-5-(trifluoromethyl)-N-(4-(trifluoromethyl)bicyclo[2.2.2]octan-1-yl)benzamide], for which the EC50 is 7.73 µM.

Turning to `O=C(NC12CCC(C(F)(F)F)(CC1)CC2)c1ccc(OC(F)(F)F)cc1NS(=O)(=O)C1CCS(=O)(=O)CC1` [Example 240, 2-((1,1-dioxidotetrahydro-2H-thiopyran)-4-sulfonamido)-4-(trifluoromethoxy)-N-(4-(trifluoromethyl)bicyclo[2.2.2]octan-1-yl)benzamide], the EC50 is 3.01 µM.

Regarding `O=C(NC12CCC(C(F)(F)F)(CC1)CC2)c1ccc(Cl)cc1NS(=O)(=O)C1CCS(=O)(=O)CC1` [Example 241, 4-chloro-2-((1,1-dioxidotetrahydro-2H-thiopyran)-4-sulfonamido)-N-(4-(trifluoromethyl)bicyclo[2.2.2]octan-1-yl)benzamide], the half-maximal effective concentration (EC50) was determined as 6.38 µM.

Turning to `N#CC1(S(=O)(=O)Nc2ccc(F)cc2C(=O)NC23CC(C(F)(F)F)(C2)C3)CC1` [Example 242, 2-((1-cyanocyclopropane)-1-sulfonamido)-5-fluoro-N-(3-(trifluoromethyl)bicyclo[1.1.1]pentan-1-yl)benzamide], the EC50 came to 4.34 µM.

As for `CS(=O)(=O)Nc1ccc(SC(F)(F)F)cc1C(=O)NC12CC(C#N)(C1)C2` [Example 243, N-(3-cyanobicyclo[1.1.1]pentan-1-yl)-2-(methylsulfonamido)-5-((trifluoromethyl)thio)benzamide], the EC50 stood at 6.14 µM.

Regarding `CN(C)S(=O)(=O)Nc1ccc(C(F)(F)F)cc1C(=O)NC12CC(C#N)(C1)C2` [Example 244, N-(3-cyanobicyclo[1.1.1]pentan-1-yl)-2-((N,N-dimethylsulfamoyl)amino)-5-(trifluoromethyl)benzamide], the EC50 is 7.65 µM.

As to `O=C(NC12CC(C(F)(F)F)(C1)C2)c1ccc(OC(F)(F)F)cc1NS(=O)(=O)N1CCS(=O)(=O)CC1` [Example 245, 2-((1,1-dioxidothiomorpholine)-4-sulfonamido)-4-(trifluoromethoxy)-N-(3-(trifluoromethyl)bicyclo[1.1.1]pentan-1-yl)benzamide], the EC50 came to 3.84 µM.

These data come from patent publication US12049439B2 (OrsoBio, Inc., priority 2018, dated 2024).
